Results as given in publication PMC5447021, “TNF Lectin-Like Domain Restores Epithelial Sodium Channel Function in Frameshift Mutants Associated with Pseudohypoaldosteronism Type 1B” (Frontiers in Immunology, 2017).

Tests used:
αF435fs = experiment: Membrane abundance of αF435fs; type: cell-based, human
Protocol: Cell surface biotinylation was performed as previously described ([26]). In brief, A549 cells or transiently transfected HEK-293 cells were grown in 10 cm dishes in 37°C, 5% CO2 incubator in DMEM medium supplemented with 5% FBS. […] Medium was aspirated, and then cells were washed twice with 10 ml ice-cold phosphate-buffered saline (PBS), covered with 2.5 mg EZ-Link Sulfo-NHS-SS-Biotin (Thermo Scientific, Rockford, USA), dissolved in 10 ml ice-cold PBS, and incubated at 4°C with gentle agitation for 30 min. Fifty milliliters of quenching solution were added to cells; then cells were scraped in solution and transferred to fresh 50 ml tube. Cell suspension was centrifuged at 500 × g for 3 min. Supernatant was discarded, and 5 ml of Tris-buffered saline (TBS) was added to the cell pellet. The cell pellet was resuspended and centrifuged at 500 × g for 3 min. Supernatant was discarded and cell pellet was resuspended in lysis buffer containing protease inhibitor cocktail (10 µM pepstatin A, 10 µM phenylmethylsulfonyl fluoride, and 10 µM leupeptin) and transferred to fresh 1.5 ml centrifuge tube. Cell pellet was then homogenized on ice by ultrasonication using 1 s bursts and incubated on ice for at least 30 min. Intact cells and nuclei were pelleted by centrifugation at 10,000 × g for 2 min under cooling conditions. Pellet was then discarded and supernatant was transferred to fresh tube, incubated overnight with 0.5 ml NeutrAvidin Agarose under gentle rotation at 4°C and centrifuged at 500 × g for 5 min under cooling conditions. Supernatant was then discarded and the pellet washed twice with 200 µl lysis buffer. The biotinylated proteins were eluted with 100 µl sodium dodecyl sulfate (SDS) sample buffer (62.5 mM Tris, pH 6.8, 1% SDS, 10% glycerine, 50 mM dithiothreitol) containing 10 µM E64 at 65°C for 10 min. Sample was then centrifuged at 500 × g for 2 min. Pellet was discarded and supernatant subjected to protein electrophoresis and immunoblotting. […] Exposed films were scanned and quantified using ImageJ (NIH, MD, USA). […]

α-ENaC (WT αβγ-ENaC) = experiment: Membrane abundance of WT α-ENaC (cell surface biotinylation, Western blot); type: cell-based, human; conditions: HEK-293, 200 nM solnatide, relative to WT control (=1), p < 0.001 vs control
Protocol: (§1) Cell surface biotinylation was performed as previously described ([26]). In brief, A549 cells or transiently transfected HEK-293 cells were grown in 10 cm dishes in 37°C, 5% CO2 incubator in DMEM medium supplemented with 5% FBS. […] Medium was aspirated, and then cells were washed twice with 10 ml ice-cold phosphate-buffered saline (PBS), covered with 2.5 mg EZ-Link Sulfo-NHS-SS-Biotin (Thermo Scientific, Rockford, USA), dissolved in 10 ml ice-cold PBS, and incubated at 4°C with gentle agitation for 30 min. Fifty milliliters of quenching solution were added to cells; then cells were scraped in solution and transferred to fresh 50 ml tube. Cell suspension was centrifuged at 500 × g for 3 min. Supernatant was discarded, and 5 ml of Tris-buffered saline (TBS) was added to the cell pellet. The cell pellet was resuspended and centrifuged at 500 × g for 3 min. Supernatant was discarded and cell pellet was resuspended in lysis buffer containing protease inhibitor cocktail (10 µM pepstatin A, 10 µM phenylmethylsulfonyl fluoride, and 10 µM leupeptin) and transferred to fresh 1.5 ml centrifuge tube. Cell pellet was then homogenized on ice by ultrasonication using 1 s bursts and incubated on ice for at least 30 min. Intact cells and nuclei were pelleted by centrifugation at 10,000 × g for 2 min under cooling conditions. […] Exposed films were scanned and quantified using ImageJ (NIH, MD, USA).

αT169fs = experiment: Membrane abundance of αT169fs; type: cell-based, human; conditions: 200 nM, relative to WT control (=1)
Protocol: as §1, with “USA). […]” for “USA).”

δD522Xβγ-ENaC = conditions: cited from earlier work
pulmonary edema = conditions: acute hypobaric hypoxia and exercise; cited from earlier work
Excerpt: (§2) Like TNF, TIP peptide can influence regulation of alveolar fluid balance.

rat lung transplantation = conditions: instilled intratracheally into rats prior to lung transplantation; cited from earlier work
Excerpt: as §2

flooded rat lung = conditions: in situ and in vivo; cited from earlier work
Excerpt: as §2

[1] = tested on: WT or mutant frameshift α-ENaC; experiment: Membrane abundance of α-ENaC, WT or mutant frameshift (overall); type: cell-based, human; conditions: HEK-293, WT or mutant frameshift α-ENaC
Protocol: as §1, with “USA). […]” for “USA).”

Structure (SMILES): C[C@@H]1NC(=O)CNC(=O)[C@H](CCC(=O)O)NC(=O)[C@@H]2CCCN2C(=O)[C@H]([C@@H](C)O)NC(=O)[C@H](CCC(=O)O)NC(=O)[C@H](CCCNC(=N)N)NC(=O)[C@H](CCC(N)=O)NC(=O)CNC(=O)[C@@H](N)CSSC[C@@H](C(=O)O)NC(=O)[C@H](Cc2ccc(O)cc2)NC(=O)[C@H](Cc2c[nH]c3ccccc23)NC(=O)[C@@H]2CCCN2C(=O)[C@H](CCCCN)NC(=O)[C@H](C)NC(=O)[C@H](CCC(=O)O)NC1=O [solnatide, L-cysteine, L-cysteinylglycyl-L-glutaminyl-L-arginyl-L-α-glutamyl-L-threonyl-L-prolyl-L-α-glutamylglycyl-L-alanyl-L-α-glutamyl-L-alanyl-L-lysyl-L-prolyl-L-tryptophyl-L-tyrosyl-, cyclic (1→17)-disulfide]
- Membrane abundance, solnatide 5 min (αF435fs; 200 nM, 5 min, relative to WT control (=1), own control 2.37 ± 0.15, p < 0.001 vs control): 3.71 ± 0.20
- Membrane abundance, solnatide 10 min (αF435fs; 200 nM, 10 min, relative to WT control (=1), own control 2.37 ± 0.15, p < 0.01 vs control): 2.82 ± 0.17
- Membrane abundance after solnatide (αF435fs; HEK-293): the membrane abundance increasing even further following exposure to solnatide
- Membrane abundance, solnatide 5 min (α-ENaC (WT αβγ-ENaC); 5 min, normalized to β-actin): 1.48 ± 0.12
- Membrane abundance, solnatide 10 min (α-ENaC (WT αβγ-ENaC); 10 min): 1.40 ± 0.09
- Membrane abundance, solnatide 5 min (αT169fs; 5 min, own control 0.54 ± 0.06, p < 0.001 vs control): 0.80 ± 0.03
- Membrane abundance, solnatide 10 min (αT169fs; 10 min, own control 0.54 ± 0.06): 0.46 ± 0.09
- Effect of solnatide on amiloride-sensitive current (δD522Xβγ-ENaC): a residual albeit non-significant increase in the amiloride-sensitive current
- Current increase, glycosylation sites removed (δD522Xβγ-ENaC; glycosylation sites in extracellular loop removed by mutation): small increase was not seen
- Therapeutic activity (pulmonary edema): profound therapeutic activity
- Lung function (rat lung transplantation): significantly improved lung function
- Alveolar fluid reabsorption (flooded rat lung): activate fluid reabsorption in in situ and in vivo flooded rat lung models
- Membrane abundance of α-ENaC [1]: transient and significant increase in membrane abundance of α-ENaC
